Data as given in patent US8741836B2, “Polypeptides” (Novo Nordisk A/S, priority 2011, dated 2014).
Starred links: 1 amine or outer side, 2 acyl side, 3 side chain; linkers in the order of their positions; H or OH if unused. Positions of bridges follow the written chain, without caps; N, C: chain ends. Residues, ends and D or L forms follow the SMILES beside them. *: point of attachment. C20 diacid = O=C(O)CCCCCCCCCCCCCCCCCCC(=O)*; γGlu = O=C(O)[C@H](CCC(=O)[*:2])N[*:1]

Columns and labels:
ad libitum fed rat = assay: Assay (I) efficacy testing on appetite (food intake) using an ad libitum fed rat model; format: in vivo, Sprague Dawley (SD) rats
Summary of the method: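 Ad libitum fed Sprague Dawley rats, 200-250 g, singly housed on reversed light cycle, got one ip, po or sc dose of 0.01-3 mg/kg just before lights off; groups of 5-8 with vehicle control. Food intake recorded hourly for 7 h, then at 24 h and sometimes 48 h; Grubbs outliers excluded.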

[1] = Assay (III) ThT fibrillation assay for physical stability; format: physicochemical; conditions: pH 4.0, ThT fibrillation assay
Summary of the method: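 Freshly prepared, pH-adjusted formulations with 1 μM ThT incubated at 37 °C under 960 rpm orbital shaking (1 mm), fluorescence (ex 444, em 485 nm) read every 20 min. […] Peptide content before and after measured by reverse-phase HPLC against pramlintide standard.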

Structure (SMILES)	Food intake reduction 0-24 h 3 nmol/kg (%) (ad libitum fed rat; 3 nmol/kg, 0-24 h)	Food intake reduction 24-48 h 3 nmol/kg (%) (ad libitum fed rat; 3 nmol/kg, 24-48 h)	ThT pH 4.0 lag time [1] [h]	Food intake reduction 0-24 h 30 nmol/kg (%) (ad libitum fed rat; 30 nmol/kg, 0-24 h)	Food intake reduction 24-48 h 30 nmol/kg (%) (ad libitum fed rat; 30 nmol/kg, 24-48 h)
CC[C@H](C)[C@H](NC(=O)[C@@H]1CCCN1C(=O)CNC(=O)[C@H](Cc1ccccc1)NC(=O)[C@H](CO)NC(=O)[C@H](CO)NC(=O)[C@H](CO)NC(=O)[C@H](CO)NC(=O)[C@H](CCCNC(=N)N)NC(=O)[C@H](Cc1c[nH]cn1)NC(=O)[C@H](CC(C)C)NC(=O)[C@H](Cc1ccccc1)NC(=O)[C@H](CCC(=O)O)NC(=O)[C@H](C)NC(=O)[C@H](CC(C)C)NC(=O)[C@H](CCCNC(=N)N)NC(=O)[C@H](CCC(N)=O)NC(=O)[C@@H](NC(=O)[C@H](C)NC(=O)[C@@H]1CSSC[C@H](NC(=O)[C@H](Cc2c[nH]cn2)NC(=O)CC[C@H](NC(=O)CCCCCCCCCCCCCCCCCCC(=O)O)C(=O)O)C(=O)N[C@@H](CC(N)=O)C(=O)N[C@@H]([C@@H](C)O)C(=O)N[C@@H](C)C(=O)N[C@@H]([C@@H](C)O)C(=O)N1)[C@@H](C)O)C(=O)N[C@@H](CC(C)C)C(=O)N1CCC[C@H]1C(=O)N1CCC[C@H]1C(=O)N[C@H](C(=O)N[C@@H](CC(=O)O)C(=O)N[C@H](C(=O)NCC(=O)N[C@@H](CO)C(=O)N[C@@H](CC(=O)O)C(=O)N[C@H](C(=O)N[C@@H](Cc1ccc(O)cc1)C(N)=O)[C@@H](C)O)C(C)C)[C@@H](C)O [Example 9, N-alpha-[(S)-4-Carboxy-4-(19-carboxynonadecanoylamino)butyryl]-[His1,Glu14,His17,Arg18,Ser21,Ser22,Asp31,Asp35]-pramlintide] ({C20 diacid-γGlu}-HCNTATCATQRLAEFLHRSSSSFGPILPPTDVGSDTY-NH2; disulfide 2-7)	39	32	>45		
CC[C@H](C)[C@H](NC(=O)[C@@H]1CCCN1C(=O)CNC(=O)[C@H](Cc1ccccc1)NC(=O)[C@H](CC(N)=O)NC(=O)[C@H](CC(N)=O)NC(=O)[C@H](CO)NC(=O)[C@H](CO)NC(=O)[C@H](Cc1c[nH]cn1)NC(=O)[C@H](CCCNC(=N)N)NC(=O)[C@H](CC(C)C)NC(=O)[C@H](Cc1ccccc1)NC(=O)[C@H](CCC(=O)O)NC(=O)[C@H](C)NC(=O)[C@H](CC(C)C)NC(=O)[C@H](CCCNC(=N)N)NC(=O)[C@H](CCC(N)=O)NC(=O)[C@@H](NC(=O)[C@H](C)NC(=O)[C@@H]1CSSC[C@H](NC(=O)[C@H](Cc2c[nH]cn2)NC(=O)[C@H](Cc2c[nH]cn2)NC(=O)[C@H](Cc2c[nH]cn2)NC(=O)CC[C@H](NC(=O)CCCCCCCCCCCCCCCCCCC(=O)O)C(=O)O)C(=O)N[C@@H](CC(N)=O)C(=O)N[C@@H]([C@@H](C)O)C(=O)N[C@@H](C)C(=O)N[C@@H]([C@@H](C)O)C(=O)N1)[C@@H](C)O)C(=O)N[C@@H](CC(C)C)C(=O)N1CCC[C@H]1C(=O)N1CCC[C@H]1C(=O)N[C@H](C(=O)N[C@@H](CC(N)=O)C(=O)N[C@H](C(=O)NCC(=O)N[C@@H](CO)C(=O)N[C@@H](CC(N)=O)C(=O)N[C@H](C(=O)N[C@@H](Cc1ccc(O)cc1)C(N)=O)[C@@H](C)O)C(C)C)[C@@H](C)O [Example 12, N-alpha-[(S)-4-Carboxy-4-(19-carboxynonadecanoylamino)butyryl]-His-His-[His1,Glu14,Arg17]-pramlintide] ({C20 diacid-γGlu}-HHHCNTATCATQRLAEFLRHSSNNFGPILPPTNVGSNTY-NH2; disulfide 4-9 (inferred))			>45	70	45
